According to patent US20260242419A1, “A CYCLIC PEPTIDE FOR TRAPPING INTERLEUKIN-1 BETA” (Merck Sharp & Dohme LLC, priority 2023, published 2026):
Starred links: 1 amine or outer side, 2 acyl side, 3 side chain; linkers in the order of their positions; H or OH if unused. Non-standard residues stand in square brackets, D forms with d. Residues, ends and D or L forms follow the SMILES beside them. Phe(4-(5-CO2H-2-pyrimidyl)) = N[C@@H](Cc1ccc(-c2ncc(C(=O)O)cn2)cc1)C(=O)O; dPro(4R-(4-pyridylmethyl)) = O=C(O)[C@H]1C[C@@H](Cc2ccncc2)CN1; Trp(βS-Me,4-F) = C[C@@H](c1c[nH]c2cccc(F)c12)[C@H](N)C(=O)O; X35 = O=C(O)C12CC(c3ccc(C[C@H](N[*:1])C(=O)[*:2])cc3)(C1)C2; Bip(4'-COOH) = N[C@@H](Cc1ccc(-c2ccc(C(=O)O)cc2)cc1)C(=O)O; Ala(1-bicyclo(1.1.1)pentyl) = N[C@@H](CC12CC(C1)C2)C(=O)O; X21 = O=C(O)c1ccc(-c2ccc(C[C@H](N[*:1])C(=O)[*:2])cn2)cc1; X26 = O=C(O)c1ccc(-c2ncc(C[C@H](N[*:1])C(=O)[*:2])cn2)cc1; dPro(4R-Bzl(4-F)) = O=C(O)[C@H]1C[C@@H](Cc2ccc(F)cc2)CN1; Ala(pyrimidin-5-yl) = N[C@@H](Cc1cncnc1)C(=O)O; Phe(4-COOH) = N[C@@H](Cc1ccc(C(=O)O)cc1)C(=O)O; X36 = O=C(O)c1ccc(C[C@H](N[*:1])C(=O)[*:2])cn1; Pro(cis-4-F) = O=C(O)[C@@H]1C[C@H](F)CN1; AEF = NCCOc1ccc(C[C@H](N)C(=O)O)cc1; 4Pal = N[C@@H](Cc1ccncc1)C(=O)O; αMeS = C[C@](N)(CO)C(=O)O; Dab = NCC[C@H](N)C(=O)O; Dap = NC[C@H](N)C(=O)O; Aib = CC(C)(N)C(=O)O

molecular target: T1, IL-1β (Homo sapiens, UniProt P01584); assay: IL-6 assay in MRC5 cells: inhibition of IL-1β induced IL-6 secretion (AlphaLISA); type: cell-based; conditions: inhibition of IL-1β induced IL-6 secretion in MRC5 cells; read-out: MRC5 IC50
T1 construct: purchased BioLegend 579404
Procedure, shortened: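 Compound was pre-incubated 1 h at ambient temperature with recombinant human IL-1β at 2λ EC80 before adding human lung fibroblast MRC5 cells (3000/well) in EMEM with 0.025% BSA. After overnight culture at 37 °C, 5% CO2, secreted IL-6 in conditioned medium was measured by AlphaLISA; IC50 from 4-parameter logistic fits.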

T1 sequence (P01584 117-269): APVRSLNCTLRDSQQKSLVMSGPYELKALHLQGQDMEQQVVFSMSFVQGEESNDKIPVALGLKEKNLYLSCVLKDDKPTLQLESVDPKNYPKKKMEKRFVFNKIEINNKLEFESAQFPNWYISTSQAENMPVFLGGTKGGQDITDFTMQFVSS

Row | SMILES | IC50 [nM]
1 | C[C@@H](c1c[nH]c2cccc(F)c12)[C@@H]1NC(=O)[C@@H]2C[C@H](F)CN2C(=O)CNC(=O)[C@H](Cc2ccc(C(=O)O)cc2)NC(=O)[C@H](CC23CC(C2)C3)NC(=O)[C@H](Cc2ccc(-c3ncc(C(=O)O)cn3)cc2)NC(=O)[C@H]2C[C@@H](Cc3ccc(F)cc3)CN2C(=O)CNC(=O)[C@H](CCN)NC(=O)[C@H](CCC(N)=O)NC(=O)[C@H](Cc2cncnc2)NC(=O)C(C)(C)NC(=O)[C@H](Cc2c[nH]c3ccccc23)NC(=O)[C@H](CO)NC(=O)C(C)(C)NC1=O [Example 83] (cyclo([Phe(4-(5-CO2H-2-pyrimidyl))][Ala(1-bicyclo(1.1.1)pentyl)][Phe(4-COOH)]G[Pro(cis-4-F)][Trp(βS-Me,4-F)][Aib]SW[Aib][Ala(pyrimidin-5-yl)]Q[Dab]G[dPro(4R-Bzl(4-F))])) | 0.045
2 | C[C@@H]1NC(=O)C(C)(C)NC(=O)[C@H]([C@@H](C)c2c[nH]c3cccc(F)c23)NC(=O)[C@@H]2C[C@H](F)CN2C(=O)CNC(=O)[C@H](Cc2ccc(C(=O)O)cc2)NC(=O)[C@H](Cc2ccncc2)NC(=O)[C@H](Cc2ccc(-c3ncc(C(=O)O)cn3)cc2)NC(=O)[C@H]2C[C@@H](Cc3ccncc3)CN2C(=O)CNC(=O)[C@H](CCN)NC(=O)[C@H](CCC(N)=O)NC(=O)[C@H](Cc2ccncc2)NC(=O)C(C)(C)NC(=O)[C@H](Cc2c[nH]c3ccccc23)NC1=O [Example 85] (cyclo([Phe(4-(5-CO2H-2-pyrimidyl))][4Pal][Phe(4-COOH)]G[Pro(cis-4-F)][Trp(βS-Me,4-F)][Aib]AW[Aib][4Pal]Q[Dab]G[dPro(4R-(4-pyridylmethyl))])) | 0.074
3 | C[C@@H]1NC(=O)C(C)(C)NC(=O)[C@H]([C@@H](C)c2c[nH]c3cccc(F)c23)NC(=O)[C@@H]2C[C@H](F)CN2C(=O)CNC(=O)[C@H](Cc2ccc(C(=O)O)cc2)NC(=O)[C@H](CC23CC(C2)C3)NC(=O)[C@H](Cc2ccc(-c3ncc(C(=O)O)cn3)cc2)NC(=O)[C@H]2C[C@@H](Cc3ccncc3)CN2C(=O)CNC(=O)[C@H](CCN)NC(=O)[C@H](CCC(N)=O)NC(=O)[C@H](Cc2ccncc2)NC(=O)C(C)(C)NC(=O)[C@H](Cc2c[nH]c3ccccc23)NC1=O [Example 88] (cyclo([Phe(4-(5-CO2H-2-pyrimidyl))][Ala(1-bicyclo(1.1.1)pentyl)][Phe(4-COOH)]G[Pro(cis-4-F)][Trp(βS-Me,4-F)][Aib]AW[Aib][4Pal]Q[Dab]G[dPro(4R-(4-pyridylmethyl))])) | 0.083
4 | C[C@@H](c1c[nH]c2cccc(F)c12)[C@@H]1NC(=O)[C@@H]2C[C@H](F)CN2C(=O)CNC(=O)[C@H](Cc2ccc(C(=O)O)cc2)NC(=O)[C@H](CC23CC(C2)C3)NC(=O)[C@H](Cc2ccc(-c3ncc(C(=O)O)cn3)cc2)NC(=O)[C@H]2C[C@@H](Cc3ccncc3)CN2C(=O)CNC(=O)[C@H](CCN)NC(=O)[C@H](CCC(N)=O)NC(=O)[C@H](Cc2ccncc2)NC(=O)C(C)(C)NC(=O)[C@H](Cc2c[nH]c3ccccc23)NC(=O)[C@H](CO)NC(=O)C(C)(C)NC1=O [Example 89] (cyclo([Phe(4-(5-CO2H-2-pyrimidyl))][Ala(1-bicyclo(1.1.1)pentyl)][Phe(4-COOH)]G[Pro(cis-4-F)][Trp(βS-Me,4-F)][Aib]SW[Aib][4Pal]Q[Dab]G[dPro(4R-(4-pyridylmethyl))])) | 0.045
5 | C[C@@H](c1c[nH]c2cccc(F)c12)[C@@H]1NC(=O)[C@@H]2C[C@H](F)CN2C(=O)CNC(=O)[C@H](Cc2ccc(C(=O)O)cc2)NC(=O)[C@H](Cc2ccncc2)NC(=O)[C@H](Cc2cnc(-c3ccc(C(=O)O)cc3)nc2)NC(=O)[C@H]2C[C@@H](Cc3ccc(F)cc3)CN2C(=O)CNC(=O)[C@H](CCN)NC(=O)[C@H](CCC(N)=O)NC(=O)[C@H](Cc2cncnc2)NC(=O)C(C)(C)NC(=O)[C@H](Cc2c[nH]c3ccccc23)NC(=O)[C@H](CCC(=O)O)NC(=O)C(C)(C)NC1=O [Example 91] (cyclo([X26][4Pal][Phe(4-COOH)]G[Pro(cis-4-F)][Trp(βS-Me,4-F)][Aib]EW[Aib][Ala(pyrimidin-5-yl)]Q[Dab]G[dPro(4R-Bzl(4-F))])) | 0.054
6 | CC(=O)NCCOc1ccc(C[C@@H]2NC(=O)[C@H]3C[C@@H](Cc4ccc(F)cc4)CN3C(=O)CNC(=O)[C@H](CCN)NC(=O)[C@H](CCC(N)=O)NC(=O)[C@H](Cc3ccncc3)NC(=O)C(C)(C)NC(=O)[C@H](Cc3c[nH]c4ccccc34)NC(=O)[C@H](CCC(=O)O)NC(=O)C(C)(C)NC(=O)[C@H]([C@@H](C)c3c[nH]c4cccc(F)c34)NC(=O)[C@@H]3C[C@H](F)CN3C(=O)CNC(=O)[C@H](Cc3ccc(C(=O)O)cc3)NC(=O)[C@H](Cc3ccncc3)NC2=O)cc1 [Example 95] (cyclo([AEF](Ac)[4Pal][Phe(4-COOH)]G[Pro(cis-4-F)][Trp(βS-Me,4-F)][Aib]EW[Aib][4Pal]Q[Dab]G[dPro(4R-Bzl(4-F))])) | 0.054
7 | C[C@@H](c1c[nH]c2cccc(F)c12)[C@@H]1NC(=O)[C@@H]2C[C@H](F)CN2C(=O)CNC(=O)[C@H](Cc2ccc(C(=O)O)cc2)NC(=O)[C@H](CC23CC(C2)C3)NC(=O)[C@H](Cc2ccc(C34CC(C(=O)O)(C3)C4)cc2)NC(=O)[C@H]2C[C@@H](Cc3ccc(F)cc3)CN2C(=O)CNC(=O)[C@H](CCN)NC(=O)[C@H](CCC(N)=O)NC(=O)[C@H](Cc2cncnc2)NC(=O)C(C)(C)NC(=O)[C@H](Cc2c[nH]c3ccccc23)NC(=O)[C@H](CCC(=O)O)NC(=O)C(C)(C)NC1=O [Example 99] (cyclo([Aib]EW[Aib][Ala(pyrimidin-5-yl)]Q[Dab]G[dPro(4R-Bzl(4-F))][X35][Ala(1-bicyclo(1.1.1)pentyl)][Phe(4-COOH)]G[Pro(cis-4-F)][Trp(βS-Me,4-F)])) | 0.031

The next lines start with the values.

Row | IC50 [nM] | SMILES
8 | 0.047 | C[C@@H](c1c[nH]c2cccc(F)c12)[C@@H]1NC(=O)[C@@H]2C[C@H](F)CN2C(=O)CNC(=O)[C@H](Cc2ccc(C(=O)O)cc2)NC(=O)[C@H](CC23CC(C2)C3)NC(=O)[C@H](Cc2ccc(-c3ncc(C(=O)O)cn3)cc2)NC(=O)[C@H]2C[C@@H](Cc3ccc(F)cc3)CN2C(=O)CNC(=O)[C@H](CCN)NC(=O)[C@H](CCC(N)=O)NC(=O)[C@H](Cc2ccncc2)NC(=O)C(C)(C)NC(=O)[C@H](Cc2c[nH]c3ccccc23)NC(=O)[C@H](CO)NC(=O)C(C)(C)NC1=O [Example 84] (cyclo([Phe(4-(5-CO2H-2-pyrimidyl))][Ala(1-bicyclo(1.1.1)pentyl)][Phe(4-COOH)]G[Pro(cis-4-F)][Trp(βS-Me,4-F)][Aib]SW[Aib][4Pal]Q[Dab]G[dPro(4R-Bzl(4-F))]))
9 | 0.059 | C[C@@H](c1c[nH]c2cccc(F)c12)[C@@H]1NC(=O)[C@@H]2C[C@H](F)CN2C(=O)CNC(=O)[C@H](Cc2ccc(C(=O)O)cc2)NC(=O)[C@H](CC23CC(C2)C3)NC(=O)[C@H](Cc2ccc(-c3ccc(C(=O)O)cc3)cc2)NC(=O)[C@H]2C[C@@H](Cc3ccncc3)CN2C(=O)CNC(=O)[C@H](CCN)NC(=O)[C@H](CCC(N)=O)NC(=O)[C@H](CN)NC(=O)C(C)(C)NC(=O)[C@H](Cc2c[nH]c3ccccc23)NC(=O)[C@H](CCC(=O)O)NC(=O)C(C)(C)NC1=O [Example 93] (cyclo([Bip(4'-COOH)][Ala(1-bicyclo(1.1.1)pentyl)][Phe(4-COOH)]G[Pro(cis-4-F)][Trp(βS-Me,4-F)][Aib]EW[Aib][Dap]Q[Dab]G[dPro(4R-(4-pyridylmethyl))]))
10 | 0.036 | C[C@@H](c1c[nH]c2cccc(F)c12)[C@@H]1NC(=O)[C@@H]2C[C@H](F)CN2C(=O)CNC(=O)[C@H](Cc2ccc(C(=O)O)cc2)NC(=O)[C@H](CC23CC(C2)C3)NC(=O)[C@H](Cc2ccc(-c3ccc(C(=O)O)cc3)cc2)NC(=O)[C@H]2C[C@@H](Cc3ccc(F)cc3)CN2C(=O)CNC(=O)[C@H](CCN)NC(=O)[C@H](CCC(N)=O)NC(=O)[C@H](CO)NC(=O)C(C)(C)NC(=O)[C@H](Cc2c[nH]c3ccccc23)NC(=O)[C@H](CO)NC(=O)[C@](C)(CO)NC1=O [Example 97] (cyclo([Bip(4'-COOH)][Ala(1-bicyclo(1.1.1)pentyl)][Phe(4-COOH)]G[Pro(cis-4-F)][Trp(βS-Me,4-F)][αMeS]SW[Aib]SQ[Dab]G[dPro(4R-Bzl(4-F))]))
11 | 0.058 | C[C@@H](c1c[nH]c2cccc(F)c12)[C@@H]1NC(=O)[C@@H]2C[C@H](F)CN2C(=O)CNC(=O)[C@H](Cc2ccc(C(=O)O)nc2)NC(=O)[C@H](CC23CC(C2)C3)NC(=O)[C@H](Cc2ccc(-c3ccc(C(=O)O)cc3)cc2)NC(=O)[C@H]2C[C@@H](Cc3ccc(F)cc3)CN2C(=O)CNC(=O)[C@H](CCN)NC(=O)[C@H](CCC(N)=O)NC(=O)[C@H](Cc2cncnc2)NC(=O)C(C)(C)NC(=O)[C@H](Cc2c[nH]c3ccccc23)NC(=O)[C@H](CCC(=O)O)NC(=O)C(C)(C)NC1=O [Example 98] (cyclo([Bip(4'-COOH)][Ala(1-bicyclo(1.1.1)pentyl)][X36]G[Pro(cis-4-F)][Trp(βS-Me,4-F)][Aib]EW[Aib][Ala(pyrimidin-5-yl)]Q[Dab]G[dPro(4R-Bzl(4-F))]))
12 | 0.074 | C[C@@H](c1c[nH]c2cccc(F)c12)[C@@H]1NC(=O)[C@@H]2C[C@H](F)CN2C(=O)CNC(=O)[C@H](Cc2ccc(C(=O)O)cc2)NC(=O)[C@H](CC23CC(C2)C3)NC(=O)[C@H](Cc2ccc(-c3ccc(C(=O)O)cc3)nc2)NC(=O)[C@H]2C[C@@H](Cc3ccc(F)cc3)CN2C(=O)CNC(=O)[C@H](CCN)NC(=O)[C@H](CCC(N)=O)NC(=O)[C@H](CN)NC(=O)C(C)(C)NC(=O)[C@H](Cc2c[nH]c3ccccc23)NC(=O)[C@H](CCC(=O)O)NC(=O)C(C)(C)NC1=O [Example 100] (cyclo([X21][Ala(1-bicyclo(1.1.1)pentyl)][Phe(4-COOH)]G[Pro(cis-4-F)][Trp(βS-Me,4-F)][Aib]EW[Aib][Dap]Q[Dab]G[dPro(4R-Bzl(4-F))]))
